How the values were obtained:
Cryptococcus curvatus = Cryptococcus curvatus growth on carbon sources (cell mass in culture); conditions: 12% w/v glycerol; Yeast Extract-based rich media; after 5 days
Procedure: Cryptococcus curvatus growth was evaluated to determine the best carbon sources to maximize its cell mass in culture. In a Yeast Extract-based rich media (10 g/L yeast extract, 20 g/L peptone), C. curvatus grew well in 2-20% w/v glucose, achieving a maximal level of 55 g/L cell dry weight (CDW) at 16% w/v glucose and above after 4 days. Similarly, C. curvatus grew in the same media with 3-12% w/v glycerol, achieving a CDW of 40 g/L in 12% w/v glycerol after 5 days. C. curvatus was also grown in Biodiesel glycerol (Imperial Western Products, Coachella, Calif.) up to 3.5% w/v, resulting in 23 g/L CDW.

[1] = system: Yarrowia lipolytica ATCC 90904; experiment: Cultivation of Yarrowia lipolytica in CYM001 media with supplements; squalene and lipid production; type: cell-based; conditions: 30° C., 300 rpm, 120 h
Procedure: Environmental manipulations are tested to increase the net yield of squalene. These include (a) inhibiting ACCase expression and/or activity with oleic acid, olive or other vegetable oil(s), inositol, choline, soraphen, fluazifop, and clethodim or other ACCase inhibiting herbicides, (b) inhibiting squalene epoxidase expression and/or activity with terbinafine, tolnaftate, and ergosterol or other squalene epoxidase inhibiting fungicides, (c) manipulating the C/N ratio in glycerol-based media (in the starting media or by add-ins), (d) varying the nitrogen source in the media (organic vs. inorganic vs. simple/complex), (e) varying carbon addition regimes (e.g. batch vs. feeding), (f) examining the effect of depleting nutrients other than carbon source, (g) varying the carbon source to include mixtures of sugars, sugar alcohols, alcohols, polyalcohols, and organic acids, (h) selecting for growth on HMGR-inhibitory compounds such as lovastatin or other statin-type inhibitors, and (i) selecting for high oil production in culture using lipophillic dyes or stains and/or by analyzing for extractable lipids using, for example, gravimetric or gas chromatographic methods.
For example, Yarrowia lipolytica ATCC 90904 was cultivated in high Carbon/Nitrogen ratio media (C/N=420, Li, Y-H., Liu, B., Zhao, Z-B., and Bai, F-W. 2006 “Optimized Culture Medium and Fermentation Conditions for Lipid Production by Rhodosporidium toruloides” Chinese Journal of Biotechnology 22(4): 650-656) (hereinafter “CYM001 Media”) supplemented with 0 to 50 μg/ml terbinafine at 30° C., 300 rpm for 120 h. […]
In a further example, Yarrowia lipolytica ATCC 90904 was cultivated in CYM001 media supplemented with 0 to 200 μM clethodim at 30° C., 300 rpm for 120 h.

For `OCC(O)CO` [glycerol], the “cell dry weight (CDW)” value (Cryptococcus curvatus) was 40 g/L.

In the case of `CCSC(C)CC1CC(=O)C(/C(CC)=N/OC/C=C/Cl)=C(O)C1` (stereo not shown) [clethodim], the “increase in the yield (mg) of squalene per 60-ml flask” value ([1]; 200 μM clethodim, CYM001 media) is reported as 60 fold.

With `CN(C/C=C/C#CC(C)(C)C)Cc1cccc2ccccc12` [terbinafine] the “squalene as % of total lipid” value ([1]; 12.5 μg/ml or higher terbinafine, CYM001 Media) was “up to 18.5%”.

In the case of `CCCCCCCC/C=C\CCCCCCCC(=O)O` [Oleic acid], the “lipid accumulation, % lipid/CDW (cell dry weight)” value ([1]; 10 μl/ml Oleic acid, CYM001 media) is reported as 63.3 % lipid/CDW.

Reference: patent US20090298150A1, “PRODUCTION OF SQUALENE USING YEAST” (priority 2008, published 2009)
